Results reported in ChEMBL document CHEMBL4265970, “2'-Aryl and 4'-arylidene substituted pyrazolones: As potential α-amylase inhibitors” (Eur J Med Chem, 2018).

How the values were obtained:
Alpha amylase [1] = molecular target: T1, Alpha amylase (Homo sapiens, UniProt P0DUB6); test: Inhibition of alpha-amylase (unknown origin) using starch as substrate preincubated for 10 mins followed by substrate addition measured after 10 mins by dinitrosalicylic acid color reagent based assay
T1 sequence (P0DUB6 whole entry): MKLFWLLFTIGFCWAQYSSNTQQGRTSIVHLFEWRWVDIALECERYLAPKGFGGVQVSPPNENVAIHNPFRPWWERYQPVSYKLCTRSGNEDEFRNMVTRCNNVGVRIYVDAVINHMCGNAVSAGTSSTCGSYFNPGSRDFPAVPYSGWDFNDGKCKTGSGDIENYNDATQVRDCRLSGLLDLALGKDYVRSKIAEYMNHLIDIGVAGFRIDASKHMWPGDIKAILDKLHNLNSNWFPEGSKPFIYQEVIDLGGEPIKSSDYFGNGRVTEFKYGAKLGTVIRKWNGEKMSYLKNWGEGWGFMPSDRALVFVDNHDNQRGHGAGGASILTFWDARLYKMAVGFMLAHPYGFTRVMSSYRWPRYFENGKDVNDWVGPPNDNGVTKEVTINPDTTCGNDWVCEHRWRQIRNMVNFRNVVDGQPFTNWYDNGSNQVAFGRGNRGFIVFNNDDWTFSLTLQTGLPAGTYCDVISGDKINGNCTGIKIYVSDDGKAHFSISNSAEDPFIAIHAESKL

Alpha amylase [2] = molecular target: T1, Alpha amylase; test: Mixed-type inhibition of alpha-amylase (unknown origin) using p-nitrophenylR-D-maltoside as substrate incubated for 30 mins at 1 min time interval
[3] = system: CC1=NN(c2ccc(Cl)cc2)C(=O)/C1=C/c1cc(Cl)cc(Cl)c1O; test: (§1) Mixed-type inhibition of alpha-amylase (unknown origin) assessed as Vmax for substrate using p-nitrophenylR-D-maltoside as substrate incubated for 30 mins at 1 min time interval; settings: Homo sapiens
[4] = system: COc1cc(/C=C2/C(=O)N(c3ccc(Cl)cc3)N=C2C)cc(OC)c1Br; test: as §1; settings: Homo sapiens
[5] = system: COc1ccc(/C=C2/C(=O)N(c3ccc(Cl)cc3)N=C2C)c(Cl)c1OC; test: as §1; settings: Homo sapiens
[6] = system: COc1ccc(/C=C2/C(=O)N(c3ccc(Cl)cc3)N=C2C)cc1Br; test: as §1; settings: Homo sapiens
[7] = system: CC1=NN(c2ccc(Cl)cc2)C(=O)/C1=C/c1ccc(Br)cc1; test: as §1; settings: Homo sapiens
[8] = system: COc1cc(/C=C2/C(=O)N(c3ccc(Cl)cc3)N=C2C)c(OC)cc1Br; test: as §1; settings: Homo sapiens
[9] = system: COc1cc(/C=C2/C(=O)N(c3ccc(Cl)cc3)N=C2C)ccc1OC(C)=O; test: as §1; settings: Homo sapiens
[10] = system: CC1=NN(c2ccc(Cl)cc2)C(=O)/C1=C/c1cc(F)ccc1Br; test: as §1; settings: Homo sapiens
[11] = system: CC1=NN(c2ccc(Cl)cc2)C(=O)/C1=C/c1cc(Cl)cc(Cl)c1O; test: (§2) Mixed-type inhibition of alpha-amylase (unknown origin) assessed as Km for substrate using p-nitrophenylR-D-maltoside as substrate incubated for 30 mins at 1 min time interval; settings: Homo sapiens
[12] = system: COc1cc(/C=C2/C(=O)N(c3ccc(Cl)cc3)N=C2C)cc(OC)c1Br; test: as §2; settings: Homo sapiens
[13] = system: COc1ccc(/C=C2/C(=O)N(c3ccc(Cl)cc3)N=C2C)c(Cl)c1OC; test: as §2; settings: Homo sapiens
[14] = system: COc1ccc(/C=C2/C(=O)N(c3ccc(Cl)cc3)N=C2C)cc1Br; test: as §2; settings: Homo sapiens
[15] = system: CC1=NN(c2ccc(Cl)cc2)C(=O)/C1=C/c1ccc(Br)cc1; test: as §2; settings: Homo sapiens
[16] = system: COc1cc(/C=C2/C(=O)N(c3ccc(Cl)cc3)N=C2C)c(OC)cc1Br; test: as §2; settings: Homo sapiens
[17] = system: COc1cc(/C=C2/C(=O)N(c3ccc(Cl)cc3)N=C2C)ccc1OC(C)=O; test: as §2; settings: Homo sapiens
[18] = system: CC1=NN(c2ccc(Cl)cc2)C(=O)/C1=C/c1cc(F)ccc1Br; test: as §2; settings: Homo sapiens

Row | Molecule | IC50 (Alpha amylase [1]) | Ki (Alpha amylase [2]) | further results
1 | COc1cc(/C=C2/C(=O)N(c3ccc(Cl)cc3)N=C2C)cc(OC)c1 | 2210 nM | – | –
2 | CC1=NN(c2ccc(Cl)cc2)C(=O)/C1=C/c1ccc(Br)cc1 | 1920 nM | 3840 nM | –
3 | COc1cc(/C=C2/C(=O)N(c3ccc(Cl)cc3)N=C2C)ccc1OC(C)=O | 1940 nM | 2980 nM | –
4 | CC1=NN(c2ccc(Cl)cc2)C(=O)/C1=C/c1c[nH]c2ccccc12 | 2160 nM | – | –
5 | Alpha amylase (Homo sapiens) (from UniProt P0DUB6) | – | – | Vmax [3]: 79.7 µM/min; Vmax [4]: 65.2 µM/min; Vmax [5]: 70.6 µM/min; Vmax [6]: 68.3 µM/min; Vmax [7]: 73.4 µM/min; Vmax [8]: 71.4 µM/min; Vmax [9]: 70.5 µM/min; Vmax [10]: 71.2 µM/min; Km [11]: 3.4 mM; Km [12]: 2.92 mM; Km [13]: 3.14 mM; Km [14]: 2.86 mM; Km [15]: 3.26 mM; Km [16]: 3.04 mM; Km [17]: 2.9 mM; Km [18]: 3.11 mM
6 | COc1cc(/C=C2/C(=O)N(c3ccc(Cl)cc3)N=C2C)ccc1OCc1ccccc1 | 2330 nM | – | –
7 | CC1=NN(c2ccc(Cl)cc2)C(=O)/C1=C/c1cc(F)ccc1Br | 1930 nM | 3420 nM | –
8 | CC1=NN(c2ccc(Cl)cc2)C(=O)/C1=C/c1cc(Cl)cc(Cl)c1O | 1610 nM | 4260 nM | –
9 | CC1=NN(c2ccc(Cl)cc2)C(=O)/C1=C/c1ccc([N+](=O)[O-])cc1 | 2380 nM | – | –

The next lines start with results.

Row | IC50 (Alpha amylase [1]) | Ki (Alpha amylase [2]) | Molecule | further results
10 | 1970 nM | 3540 nM | COc1ccc(/C=C2/C(=O)N(c3ccc(Cl)cc3)N=C2C)c(Cl)c1OC | –
11 | 1860 nM | 3120 nM | COc1cc(/C=C2/C(=O)N(c3ccc(Cl)cc3)N=C2C)c(OC)cc1Br | –
12 | 2100 nM | – | COc1ccc(/C=C2/C(=O)N(c3ccc(Cl)cc3)N=C2C)c(OC)c1OC | –
13 | 2010 nM | – | COc1ccc(/C=C2/C(=O)N(c3ccc(Cl)cc3)N=C2C)c(OC)c1 | –
14 | 2020 nM | – | COc1ccccc1/C=C1/C(=O)N(c2ccc(Cl)cc2)N=C1C | –
15 | 1680 nM | 3240 nM | COc1cc(/C=C2/C(=O)N(c3ccc(Cl)cc3)N=C2C)cc(OC)c1Br | –
16 | 2030 nM | – | COc1ccc(/C=C2/C(=O)N(c3ccc(Cl)cc3)N=C2C)cc1OC | –
17 | 2190 nM | – | COc1cc(/C=C2/C(=O)N(c3ccc(Cl)cc3)N=C2C)cc(OC)c1OC | –
18 | 1920 nM | 3840 nM | COc1ccc(/C=C2/C(=O)N(c3ccc(Cl)cc3)N=C2C)cc1Br | –
19 | 2130 nM | – | COc1ccc(OC)c(/C=C2/C(=O)N(c3ccc(Cl)cc3)N=C2C)c1 | –
